Assay results: US11051515B2, “3-acyl-benzamides and their use as herbicides” (Bayer Aktiengesellschaft, priority 2017, dated 2021)

How the values were obtained:
[1] = test system: SETVI; test: Pre-emergence action against SETVI; type: in vivo, Setaria viridis; conditions: pre-emergence, dosage 320 g/ha, scored visually after 3 weeks vs untreated controls
How it was run: (§1)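 Seeds sown in sandy loam in wood-fiber pots and covered with soil. Greenhouse growth; visual damage scored after 3 weeks versus untreated controls (100% = dead, 0% = like control).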

[2] = test system: AMARE; test: Post-emergence action against AMARE; type: in vivo, Amaranthus retroflexus; conditions: post-emergence, dosage 80 g/ha, visual assessment about 3 weeks after treatment vs untreated controls
How it was run: (§2)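 Weeds grown in sandy loam in greenhouse, treated at one-leaf stage (2–3 weeks after sowing) with WP or EC formulations sprayed as aqueous suspension/emulsion at 600 to […] water with 0.2% wetting agent. Visual rating after about 3 weeks versus untreated controls, as % herbicidal action (100% = plants dead, 0% = like control).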

[3] = test system: MATIN; test: Post-emergence action against MATIN; type: in vivo, Matricaria inodora; conditions: post-emergence, dosage 80 g/ha, visual assessment about 3 weeks after treatment vs untreated controls
How it was run: as §2

[4] = test system: VIOTR; test: Pre-emergence action against VIOTR; type: in vivo, Viola tricolor; conditions: Dosage 320 g/ha, pre-emergence
How it was run: as §1

[5] = test system: AVEFA; test: Pre-emergence action against AVEFA; type: in vivo, Avena fatua; conditions: dosage 320 g/ha, scored visually after 3 weeks vs untreated controls
How it was run: as §1

[6] = test system: PHBPU; test: Post-emergence action against PHBPU; type: in vivo, Pharbitis purpurea; conditions: post-emergence, dosage 80 g/ha
How it was run: as §2

[7] = test system: VERPE; test: Post-emergence action against VERPE; type: in vivo, Veronica persica; conditions: dosage 80 g/ha
How it was run: as §2

[8] = test system: PHBPU; test: Pre-emergence action against PHBPU; type: in vivo, Pharbitis purpurea; conditions: Dosage 320 g/ha, pre-emergence
How it was run: as §1

[9] = test system: ECHCG; test: Pre-emergence action against ECHCG; type: in vivo, Echinochloa crus-galli; conditions: pre-emergence, dosage 320 g/ha, scored visually after 3 weeks vs untreated controls
How it was run: as §1

[10] = test system: VIOTR; test: Post-emergence action against VIOTR; type: in vivo, Viola tricolor; conditions: post-emergence, dosage 80 g/ha
How it was run: as §2

[11] = test system: POLCO; test: Post-emergence action against POLCO; type: in vivo, Polygonum convolvulus; conditions: post-emergence, dosage 80 g/ha
How it was run: as §2

[12] = test system: ECHCG; test: Post-emergence action against ECHCG; type: in vivo, Echinochloa crus-galli; conditions: post-emergence, dosage 80 g/ha, visual assessment about 3 weeks after treatment vs untreated controls
How it was run: as §2

[13] = test system: LOLMU; test: Pre-emergence action against LOLMU; type: in vivo, Lolium multiflorum; conditions: dosage 320 g/ha, scored visually after 3 weeks vs untreated controls
Text: Seeds of monocotyledonous and dicotyledonous weed plants and crop plants are laid out in sandy loam soil in wood-fiber pots and covered with soil. The compounds of the invention, formulated in the form of wettable powders (WP) or as emulsion concentrates (EC), are then applied to the surface of the covering soil in the form of an aqueous suspension or emulsion at a water application rate equating to […], with addition of 0.2% wetting agent. After the treatment, the pots are placed in a greenhouse and kept under good growth conditions for the trial plants. The damage to the test plants is scored visually after a test period of 3 weeks by comparison with untreated controls (herbicidal activity in percent (%): 100% activity=the plants have died, 0% activity=like control plants).

[14] = test system: ABUTH; test: Post-emergence action against ABUTH; type: in vivo, Abutilon theophrasti; conditions: post-emergence, dosage 80 g/ha, visual assessment about 3 weeks after treatment vs untreated controls
How it was run: as §2

[15] = test system: MATIN; test: Pre-emergence action against MATIN; type: in vivo, Matricaria inodora; conditions: Dosage 320 g/ha, pre-emergence
How it was run: as §1

[16] = test system: ALOMY; test: Pre-emergence action against ALOMY; type: in vivo, Alopecurus myosuroides; conditions: dosage 320 g/ha; pre-emergence; scored visually after 3 weeks vs untreated controls; 100% = plants have died, 0% = like control plants
How it was run: as §1

[17] = test system: POLCO; test: Pre-emergence action against POLCO; type: in vivo, Polygonum convolvulus; conditions: Dosage 320 g/ha, pre-emergence
How it was run: as §1

[18] = test system: CYPES; test: Pre-emergence action against CYPES; type: in vivo, Cyperus esculentus; conditions: pre-emergence, dosage 320 g/ha, scored visually after 3 weeks vs untreated controls
How it was run: as §1

[19] = test system: AMARE; test: Pre-emergence action against AMARE; type: in vivo, Amaranthus retroflexus; conditions: pre-emergence, dosage 320 g/ha, scored visually after 3 weeks vs untreated controls
How it was run: as §1

[20] = test system: ABUTH; test: Pre-emergence action against ABUTH; type: in vivo, Abutilon theophrasti; conditions: pre-emergence, dosage 320 g/ha, scored visually after 3 weeks vs untreated controls
How it was run: as §1

[21] = test system: CYPES; test: Post-emergence action against CYPES; type: in vivo, Cyperus esculentus; conditions: post-emergence, dosage 80 g/ha, visual assessment about 3 weeks after treatment vs untreated controls
How it was run: as §2

[22] = test system: STEME; test: Post-emergence action against STEME; type: in vivo, Stellaria media; conditions: post-emergence, dosage 80 g/ha
How it was run: as §2

[23] = test system: VERPE; test: Pre-emergence action against VERPE; type: in vivo, Veronica persica; conditions: Dosage 320 g/ha, pre-emergence
How it was run: as §1

[24] = test system: SETVI; test: Post-emergence action against SETVI; type: in vivo, Setaria viridis; conditions: post-emergence, dosage 80 g/ha, visual assessment about 3 weeks after treatment vs untreated controls
How it was run: as §2

[25] = test system: STEME; test: Pre-emergence action against STEME; type: in vivo, Stellaria media; conditions: Dosage 320 g/ha, pre-emergence
How it was run: as §1

[26] = test system: AVEFA; test: Post-emergence action against AVEFA; type: in vivo, Avena fatua; conditions: post-emergence, dosage 80 g/ha, visual assessment about 3 weeks after treatment vs untreated controls
How it was run: as §2

[27] = test system: ALOMY; test: Post-emergence action against ALOMY; type: in vivo, Alopecurus myosuroides; conditions: Dosage 80 g/ha, post-emergence
How it was run: as §2

| SMILES | SETVI (Table B8, pre-emergence herbicidal activity) [1] [%] | Post-emergence action against AMARE (herbicidal action in percent) [2] [%] | Post-emergence action against MATIN (herbicidal action in percent) [3] [%] | Pre-emergence action against VIOTR [4] [%] | Pre-emergence action against AVEFA (herbicidal activity) [5] [%] | Post-emergence action against PHBPU [6] | Post-emergence action against VERPE [7] | Pre-emergence action against ECHCG (herbicidal activity) [9] [%] | Post-emergence action against VIOTR [10] | Post-emergence action against ECHCG (herbicidal action in percent) [12] [%] | Pre-emergence action against LOLMU (herbicidal activity) [13] [%] | Post-emergence action against ABUTH (herbicidal action in percent) [14] [%] | Pre-emergence action against MATIN [15] [%] | Pre-emergence action against ALOMY (herbicidal activity in percent) [16] [%] | Pre-emergence action against CYPES (herbicidal activity) [18] [%] | Pre-emergence action against AMARE (herbicidal activity) [19] [%] | Pre-emergence action against ABUTH (herbicidal activity) [20] [%] | Post-emergence action against STEME [22] | Pre-emergence action against VERPE [23] [%] | Post-emergence action against SETVI (herbicidal action in percent) [24] [%] | other results |
| --- | --- | --- | --- | --- | --- | --- | --- | --- | --- | --- | --- | --- | --- | --- | --- | --- | --- | --- | --- | --- | --- |
| CCn1nnnc1NC(=O)c1ccc(C(F)(F)F)c(C(C)=O)c1SC [2-58] | 100 | 100 | 100 | 100 | 90 | 100 | 100 | 100 | 100 | 90 | 90 | 100 | 100 | 100 | 100 | 100 | 100 | 100 | 100 | 100 | Pre-emergence action against PHBPU [8]: 80%; Post-emergence action against POLCO [11]: 90; Pre-emergence action against POLCO [17]: 100%; Post-emergence action against CYPES (herbicidal action in percent) [21]: 90%; Pre-emergence action against STEME [25]: 90% |
| CCn1nnnc1NC(=O)c1ccc(SC)c(C(=O)C2CC2)c1Cl [2-123] | 100 | 100 | 100 | 100 | 80 | 100 | 100 | 100 | 100 | 100 | 90 | 100 | 100 | 100 | 90 | 100 | 100 | 100 | 100 | 100 | Post-emergence action against AVEFA (herbicidal action in percent) [26]: 100%; Post-emergence action against ALOMY [27]: 90%; Pre-emergence action against STEME [25]: 100% |
